# Measurements reported in the supplement of paper PMC10307832.
# Experiments:
# Test in all cases: relative viability (nuclei count vs DMSO), 5 days (fraction); higher = more cells survive
# [1] = test system: 201T
# Outline: (§1)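 Medians of duplicate plates are given as relative viability. That measure is the nuclei count in treated wells divided by the count in vehicle wells. Counts were taken on 4× images of lung cancer cell lines in 1536-well plates, 5 days after pin-tool dosing the day after seeding with one drug alone or a fixed anchor-drug dose plus five library-drug doses (not always all listed) in √10 steps.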
# [2] = test system: A-427
# Outline: as §1
# [3] = test system: COR-L 105
# Outline: as §1
# [4] = test system: COR-L23
# Outline: as §1
# [5] = test system: EKVX
# Outline: as §1
# [6] = test system: HARA
# Outline: as §1
# [7] = test system: HCC-15
# Outline: as §1
# [8] = test system: HCC-44
# Outline: as §1
# [9] = test system: HCC-827
# Outline: as §1
# [10] = test system: LCLC-103H
# Outline: as §1
# [11] = test system: LK-2
# Outline: as §1
# [12] = test system: NCI-H1437
# Outline: as §1
# [13] = test system: NCI-H1666
# Outline: as §1
# [14] = test system: NCI-H1792
# Outline: as §1
# [15] = test system: NCI-H1975
# Outline: as §1
# [16] = test system: NCI-H23
# Outline: as §1
# [17] = test system: NCI-H441
# Outline: as §1
# [18] = test system: NCI-H520
# Outline: as §1
# [19] = test system: NCI-H596
# Outline: as §1
# [20] = test system: NCI-H650
# Outline: as §1
# [21] = test system: NCI-H838
# Outline: as §1
# [22] = test system: SK-MES-1
# Outline: as §1
compound,measurement,setting,value
Clc1ccc(Nc2nnc(Cc3ccncc3)c3ccccc23)cc1 [Vatalanib] + C[C@]1(O)C[C@@H](c2nc(-c3ccc4ccc(-c5ccccc5)nc4c3)c3c(N)nccn32)C1 [Linsitinib] (partner 1 µM),relative viability,[1]; first compound 0.04 µM,1.02
same,relative viability,[1]; first compound 0.1265 µM,1.04
same,relative viability,[1]; first compound 0.4 µM,1.02
same,relative viability,[1]; first compound 1.265 µM,0.985
same,relative viability,[1]; first compound 4 µM,0.949
same,relative viability,[2]; first compound 0.04 µM,1.15
same,relative viability,[2]; first compound 0.1265 µM,1.1
same,relative viability,[2]; first compound 0.4 µM,1.13
same,relative viability,[2]; first compound 1.265 µM,1.06
same,relative viability,[2]; first compound 4 µM,1.1
same,relative viability,[3]; first compound 0.04 µM,0.835
same,relative viability,[3]; first compound 0.1265 µM,0.87
same,relative viability,[3]; first compound 0.4 µM,1.12
same,relative viability,[3]; first compound 1.265 µM,0.772
same,relative viability,[3]; first compound 4 µM,0.941
same,relative viability,[4]; first compound 0.04 µM,0.978
same,relative viability,[4]; first compound 0.1265 µM,0.943
same,relative viability,[4]; first compound 0.4 µM,1.08
same,relative viability,[4]; first compound 1.265 µM,0.811
same,relative viability,[4]; first compound 4 µM,0.922
same,relative viability,[5]; first compound 0.04 µM,1.03
same,relative viability,[5]; first compound 0.1265 µM,0.89
same,relative viability,[5]; first compound 0.4 µM,0.941
same,relative viability,[5]; first compound 1.265 µM,0.814
same,relative viability,[5]; first compound 4 µM,0.776
same,relative viability,[6]; first compound 0.04 µM,1.02
same,relative viability,[6]; first compound 0.1265 µM,0.896
same,relative viability,[6]; first compound 0.4 µM,1
same,relative viability,[6]; first compound 1.265 µM,0.84
same,relative viability,[6]; first compound 4 µM,0.838
same,relative viability,[7]; first compound 0.04 µM,0.937
same,relative viability,[7]; first compound 0.1265 µM,0.911
same,relative viability,[7]; first compound 0.4 µM,0.902
same,relative viability,[7]; first compound 1.265 µM,0.87
same,relative viability,[7]; first compound 4 µM,0.873
same,relative viability,[8]; first compound 0.04 µM,0.683
same,relative viability,[8]; first compound 0.1265 µM,0.643
same,relative viability,[8]; first compound 0.4 µM,0.676
same,relative viability,[8]; first compound 1.265 µM,0.636
same,relative viability,[8]; first compound 4 µM,0.679
same,relative viability,[9]; first compound 0.04 µM,0.992
same,relative viability,[9]; first compound 0.1265 µM,0.925
same,relative viability,[9]; first compound 0.4 µM,0.95
same,relative viability,[9]; first compound 1.265 µM,0.936
same,relative viability,[9]; first compound 4 µM,0.905
same,relative viability,[10]; first compound 0.04 µM,1.24
same,relative viability,[10]; first compound 0.1265 µM,1.07
same,relative viability,[10]; first compound 0.4 µM,1.24
same,relative viability,[10]; first compound 1.265 µM,1.06
same,relative viability,[10]; first compound 4 µM,1.05
same,relative viability,[11]; first compound 0.04 µM,0.712
same,relative viability,[11]; first compound 0.1265 µM,0.423
same,relative viability,[11]; first compound 0.4 µM,0.541
same,relative viability,[11]; first compound 1.265 µM,0.435
same,relative viability,[11]; first compound 4 µM,0.704
same,relative viability,[12]; first compound 0.04 µM,1.09
same,relative viability,[12]; first compound 0.1265 µM,1.03
same,relative viability,[12]; first compound 0.4 µM,1.14
same,relative viability,[12]; first compound 1.265 µM,0.956
same,relative viability,[12]; first compound 4 µM,1.08
same,relative viability,[13]; first compound 0.04 µM,0.805
same,relative viability,[13]; first compound 0.1265 µM,0.891
same,relative viability,[13]; first compound 0.4 µM,0.923
same,relative viability,[13]; first compound 1.265 µM,0.779
same,relative viability,[13]; first compound 4 µM,0.708
same,relative viability,[14]; first compound 0.04 µM,0.465
same,relative viability,[14]; first compound 0.1265 µM,0.494
same,relative viability,[14]; first compound 0.4 µM,0.506
same,relative viability,[14]; first compound 1.265 µM,0.493
same,relative viability,[14]; first compound 4 µM,0.515
same,relative viability,[15]; first compound 0.04 µM,0.889
same,relative viability,[15]; first compound 0.1265 µM,0.92
same,relative viability,[15]; first compound 0.4 µM,1.1
same,relative viability,[15]; first compound 1.265 µM,0.834
same,relative viability,[15]; first compound 4 µM,0.86
same,relative viability,[16]; first compound 0.04 µM,0.533
same,relative viability,[16]; first compound 0.1265 µM,0.659
same,relative viability,[16]; first compound 0.4 µM,0.601
same,relative viability,[16]; first compound 1.265 µM,0.495
same,relative viability,[16]; first compound 4 µM,0.583
same,relative viability,[17]; first compound 0.04 µM,0.597
same,relative viability,[17]; first compound 0.1265 µM,0.515
same,relative viability,[17]; first compound 0.4 µM,0.583
same,relative viability,[17]; first compound 1.265 µM,0.722
same,relative viability,[17]; first compound 4 µM,0.645
same,relative viability,[18]; first compound 0.04 µM,0.901
same,relative viability,[18]; first compound 0.1265 µM,0.888
same,relative viability,[18]; first compound 0.4 µM,0.802
same,relative viability,[18]; first compound 1.265 µM,0.86
same,relative viability,[18]; first compound 4 µM,0.989
same,relative viability,[19]; first compound 0.04 µM,1.18
same,relative viability,[19]; first compound 0.1265 µM,1.13
same,relative viability,[19]; first compound 0.4 µM,0.951
same,relative viability,[19]; first compound 1.265 µM,1.14
same,relative viability,[19]; first compound 4 µM,1.08
same,relative viability,[20]; first compound 0.04 µM,0.942
same,relative viability,[20]; first compound 0.1265 µM,0.77
same,relative viability,[20]; first compound 1.265 µM,0.723
same,relative viability,[20]; first compound 4 µM,0.833
same,relative viability,[21]; first compound 0.04 µM,1.01
same,relative viability,[21]; first compound 0.1265 µM,0.994
same,relative viability,[21]; first compound 0.4 µM,1.15
same,relative viability,[21]; first compound 1.265 µM,0.932
same,relative viability,[21]; first compound 4 µM,0.976
same,relative viability,[22]; first compound 0.04 µM,1.04
same,relative viability,[22]; first compound 0.1265 µM,1.03
same,relative viability,[22]; first compound 0.4 µM,1.17
same,relative viability,[22]; first compound 1.265 µM,1.02
same,relative viability,[22]; first compound 4 µM,0.928
